Assay results taken from ChEMBL document CHEMBL5625159, “Challenges for the development of mutant isocitrate dehydrogenases 1 inhibitors to treat glioma” (Eur J Med Chem, 2023).
One block for each molecule: values may come before it.

Columns and labels:
[1] = target: T1, Isocitrate dehydrogenase [NADP] cytoplasmic (Homo sapiens, UniProt O75874, R132H); assay: Inhibition of C-terminal Hexahistidine-tagged human recombinant IDH1 R132H mutant expressed in Escherichia coli BL21 (DE3) cells assessed as NADPH consumption in presence of alpha KG incubated for 1 hr by MST assay
T1 sequence (O75874 2-414 R132H limits assumed): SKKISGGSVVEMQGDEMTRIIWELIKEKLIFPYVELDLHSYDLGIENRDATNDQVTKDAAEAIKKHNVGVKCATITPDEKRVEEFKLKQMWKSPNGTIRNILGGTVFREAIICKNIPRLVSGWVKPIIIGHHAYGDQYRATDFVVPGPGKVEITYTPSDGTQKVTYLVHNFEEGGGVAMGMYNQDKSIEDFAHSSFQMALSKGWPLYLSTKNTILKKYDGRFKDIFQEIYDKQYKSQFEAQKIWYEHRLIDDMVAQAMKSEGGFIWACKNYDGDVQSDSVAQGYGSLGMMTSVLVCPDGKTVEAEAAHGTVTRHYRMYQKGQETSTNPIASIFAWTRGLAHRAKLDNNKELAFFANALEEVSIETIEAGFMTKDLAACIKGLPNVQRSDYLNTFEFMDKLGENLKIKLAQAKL

[2] = target: T2, Isocitrate dehydrogenase [NADP] cytoplasmic (Homo sapiens, UniProt O75874, R132C); assay: Inhibition of C-terminal Hexahistidine-tagged human recombinant IDH1 R132C mutant expressed in Escherichia coli BL21 (DE3) cells assessed as NADPH consumption in presence of alpha KG incubated for 1 hr by MST assay
T2 sequence (O75874 2-414 R132C limits assumed): as the sequence (O75874 2-414 R132H limits assumed) above, with H131C counted along it

[3] = target: T1, Isocitrate dehydrogenase [NADP] cytoplasmic; assay: Inhibition of IDH1 R132H mutant (unknown origin) expressed in HEK293T cells assessed as inhibition of 2-HG generation measured after 48 hrs by LC-MS/MS analysis; assay type: cell-based
[4] = target: T2, Isocitrate dehydrogenase [NADP] cytoplasmic; assay: Inhibition of IDH1 R132C mutant (unknown origin) expressed in HEK293T cells assessed as inhibition of 2-HG generation measured after 48 hrs by LC-MS/MS analysis; assay type: cell-based
[5] = target: T3, Isocitrate dehydrogenase [NADP] cytoplasmic (Homo sapiens, UniProt O75874); assay: Inhibition of wild type IDH1 (unknown origin)
T3 sequence (O75874 whole entry): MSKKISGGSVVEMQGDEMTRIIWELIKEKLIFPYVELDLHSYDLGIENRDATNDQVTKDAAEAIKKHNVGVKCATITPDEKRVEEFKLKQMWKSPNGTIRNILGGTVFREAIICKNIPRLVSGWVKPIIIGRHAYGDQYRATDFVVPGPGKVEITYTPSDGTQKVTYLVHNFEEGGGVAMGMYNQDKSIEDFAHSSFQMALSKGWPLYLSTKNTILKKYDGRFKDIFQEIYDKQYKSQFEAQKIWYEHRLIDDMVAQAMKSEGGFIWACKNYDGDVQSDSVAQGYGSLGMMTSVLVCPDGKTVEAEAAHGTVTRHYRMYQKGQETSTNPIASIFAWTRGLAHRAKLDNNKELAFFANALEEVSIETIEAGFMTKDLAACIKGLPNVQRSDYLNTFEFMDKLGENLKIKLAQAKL

[6] = target: T1, Isocitrate dehydrogenase [NADP] cytoplasmic; assay: Binding affinity to human recombinant IDH1 R132H mutant expressed in Escherichia coli BL21 (DE3) cells assessed as inhibition constant
[7] = target: T1, Isocitrate dehydrogenase [NADP] cytoplasmic; assay: Inhibition of N-terminal 6xHis-tagged IDH1 R132H mutant (unknown origin) expressed in Escherichia coli BL21 cells
[8] = target: T3, Isocitrate dehydrogenase [NADP] cytoplasmic; assay: Inhibition of N-terminal His-tagged wild type IDH1 (unknown origin)
[9] = target: T1, Isocitrate dehydrogenase [NADP] cytoplasmic; assay: Inhibition of wildtype human recombinant IDH1 R132H mutant heterodimer in presence of alpha-ketoglutarate and NADPH by fluorescence based biochemical assay
[10] = target: T2, Isocitrate dehydrogenase [NADP] cytoplasmic; assay: Inhibition of human N-terminal 6His-tagged IDH1 R132C mutant expressed in Escherichia coli Rosetta2 (DE3) in presence of alpha-ketoglutarate and NADPH by fluorescence based biochemical assay
[11] = target: T1, Isocitrate dehydrogenase [NADP] cytoplasmic; assay: Inhibition of human recombinant IDH1 R132H mutant expressed in Escherichia coli BL21 (DE3) cells in presence of alpha-ketoglutarate and NADPH by fluorescence based biochemical assay

SMILES: CCN(CC)CCOc1ccc(/C(=C(\Cl)c2ccccc2)c2ccccc2)cc1 [ZUCLOMIPHENE]
IC50 [1]: 50.2 µM
IC50 [2]: 42.3 µM

SMILES: C=CC(C)(C)c1cc(/C=C/C(=O)c2ccc(O)cc2)c(OC)cc1O [LICOAGROCHACONE A]
IC50 [5]: > 100 µM
Ki [6]: 76.9 µM

SMILES: CC(C)(O)CNc1nc(Nc2ccnc(C(F)(F)F)c2)nc(-c2cccc(C(F)(F)F)n2)n1 [ENASIDENIB]
IC50 [7]: 0.677 µM

Continued, values first:

IC50 [3]: 55.5 µM
IC50 [4]: 65.4 µM
SMILES: COC(=O)C1CCC2=C(C1=O)C(c1c[nH]c3ccccc13)Nc1ccccc1N2 (stereo unspecified)

IC50 [8]: 0.467 µM
IC50 [9]: 0.0166 µM
IC50 [10]: 0.0088 µM
IC50 [11]: 0.0152 µM
SMILES: COc1c(C)cc(NC(=O)c2nn(Cc3ccc(F)cc3)c3c2CN(C(=O)c2ccc[nH]2)C[C@@H]3C(N)=O)cc1C
